# Data taken from US11884708B2, “Stapled peptide inhibitors of nemo as potential anti-inflammatory and anti-cancer drugs” (INSTITUT PASTEUR, priority 2015, dated 2024).
# Like-named read-outs stand apart in the source and are kept apart here. Where a SMILES comes first, the peptide text is derived from it. Bridges are numbered along the chain shown (N, C = ends). [ ]: non-standard residue; d: D form. The star is where a group is joined. BODIPYFLEthylmaleimide = Cc1cc(C)n2c1C=C1C=CC(CCC(=O)NCCN3C(=O)CC(*)C3=O)=[N+]1[B-]2(F)F; R8 = C=CCCCCCC[C@@](C)(N)C(=O)O; S5 = C=CCCC[C@](C)(N)C(=O)O
# What was measured:
# [1] = CD spectroscopy, α-helical content; format: physicochemical; conditions: 50 μM peptide, phosphate buffer pH 7.0, UBI in TFE taken as 100%
# [2] = Temperature-induced denaturation followed by CD; format: physicochemical; conditions: 30 μM or 300 μM, ΔCp ≈ 0; for Tm: thermal denaturation by CD; for ΔH: van't Hoff enthalpy change at Tm
# Experimental: Temperature-induced denaturation experiments were performed by measuring the ellipticity at 222 nm from 1° C. to 95° C. in 1° C. steps, at a rate of 1° C./min, with a 2 nm bandwidth. Thermodynamic parameters including the melting temperature (Tm) and the van't Hoff enthalpy change at the melting temperature (ΔHm) were determined by fitting the denaturation curves with the Gibbs-Helmholtz equation as described elsewhere, [10]. The heat capacity change (ΔCp) was assumed to be 0 as judged by ΔHm which yielded similar values within 10% at two independent peptide concentrations (30 and 300 μM). The ellipticity was converted to differential extinction coefficient Δε (M^−1·cm^−1) per residue taking into account the peptide concentration determined by amino acid analysis.
# Thermal stability of the peptides was also investigated by performing thermal denaturation profiles followed by CD (FIGS. 1 C and D and Table III). […] Indeed, the helicity of UBI-Aib (49%) is only 1.16-fold increased at 1° C. compared to UBI (42%), while its melting temperature (Tm=−8° C.) is 2.25 times higher than that of UBI (Tm=−18° C.).
# [3] = target: CC2-LZ domain of NEMO (Mus musculus, UniProt O88522); assay: Fluorescence anisotropy/polarization binding assay; conditions: for Kd: fixed peptide concentration 0.1 μM; for Binding affinity (FP) at 10 μM: fixed peptide concentration 10 μM
# CC2-LZ domain of NEMO, sequence (O88522 242-343 limits assumed): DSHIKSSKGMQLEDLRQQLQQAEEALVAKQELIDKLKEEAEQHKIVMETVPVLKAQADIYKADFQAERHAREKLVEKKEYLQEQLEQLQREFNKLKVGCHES
# Experimental: Measurements were performed on a Tecan infinite F500 equipped with polarizing filters and using excitation and emission wavelengths at 485 nm and 535 nm, respectively. Anisotropy data were calculated using the Magellan software version 6.5. Prior experiments, the mouse CC2-LZ was extensively dialyzed in binding buffer containing 20 mM HEPES pH 7.4, 100 mM NaCl, and 0.05% P20 detergent (v/v). All experiments were performed in a 384 well plate (vol 25 μl) at room temperature. The BODIPY®-labeled peptide concentrations were fixed at 0.1 or 10 μM whereas the CC2-LZ concentration varied from 0 to 100 μM. Reference calibrated at 22 mP, was based on the fluorescence of the peptide alone. Each experimental binding curve was determined from at least 10 independent concentration points. The G-factor was calculated as previously described in Agou et al. [7], with a value of 0.75, which was observed constant within 5% upon all titrations. For analysis, the blank value corresponding to the value of buffer alone, was subtracted from all titration data.
# All NEMO peptides were conjugated to an extra N-terminal cysteine with the fluorophore BODIPY® or FITC to determine their binding affinity for the CC2-LZ domain of NEMO (also called NOA or UBAN) by fluorescence polarization. For each peptide titration, various concentration of the target ranging from 0 to 100 μM and a fixed concentration of peptide at 0.1 or 10 μM were used at 25° C. […] For these reasons, all further titration experiments were performed with a fixed peptide concentration of 0.1 μM unless otherwise indicated.
# [4] = read-out: Binding affinity (FP) at 0.1 μM
α-helical content at 1° C. [1],ΔS [2],Tm [2],ΔH [2],"Kd [3, 4]",Binding affinity (FP) at 10 μM [3],"Kd ([3]; peptides with antennapedia, read-out: KD)",SMILES,Kd ([3]; peptides with antennapedia)
B: 58%,B: −24 cal. mol^−1.K^−1,32 ± 0.3 C°,B: −7200 (cal. mol)^−1,> 800 µM,–,–,"CC(=O)N[C@@H](CSC1CC(=O)N(CCNC(=O)CCC2=[N+]3C(=Cc4c(C)cc(C)n4[B-]3(F)F)C=C2)C1=O)C(=O)N[C@@H](CCC(=O)O)C(=O)N[C@@H](CC(C)C)C(=O)N[C@@H](C)C(=O)N[C@@H](CCC(N)=O)C(=O)N[C@@H](CC(C)C)C(=O)N[C@@H](CCC(N)=O)C(=O)N[C@@H](C)C(=O)N[C@@H](CCC(=O)O)C(=O)N[C@@H](CC(C)C)C(=O)N[C@@H](CC(=O)O)C(=O)N[C@]1(C)CCCCCCC=CCCC[C@@](C)(C(=O)N[C@@H](CC(=O)O)C(=O)N[C@@H](CCCCN)C(=O)N[C@@H](CCC(N)=O)C(=O)N[C@@H](CCC(=O)O)C(=O)N[C@@H](CC(C)C)C(=O)N[C@@H](CCCNC(=N)N)C(=O)N[C@@H](CCCCN)C(=O)N[C@@H](CC(C)C)C(N)=O)NC(=O)[C@H](CCC(N)=O)NC(=O)[C@H](C(C)C)NC(=O)[C@H](C(C)C)NC(=O)[C@H](C)NC(=O)[C@H](CCC(N)=O)NC(=O)[C@H](C(C)C)NC1=O (single isomer, unassigned) [Co-SAHN I307-A314 (B), ELAQLQAELDXVQAVVQXDKQELRKL, reference compound]",–
A: 75% -,A: −16 - cal. mol^−1.K^−1,35 ± 0.3 C°,A: −4800 - (cal. mol)^−1,34 ± 6 µM,Very weak,–,"CC[C@H](C)[C@@H]1NC(=O)[C@](C)(NC(=O)[C@H](C)NC(=O)[C@H](CCC(N)=O)NC(=O)[C@H](C)NC(=O)[C@H](CCCCN)NC(=O)[C@H](CC(C)C)NC(=O)[C@H](CSC2CC(=O)N(CCNC(=O)CCC3=[N+]4C(=Cc5c(C)cc(C)n5[B-]4(F)F)C=C3)C2=O)NC(C)=O)CCCCCCC=CCCC[C@@](C)(C(=O)N[C@@H](C)C(=O)N[C@@H](CCC(=O)O)C(=O)N[C@@H](CCCNC(=N)N)C(=O)N[C@@H](Cc2c[nH]cn2)C(=O)N[C@@H](C)C(=O)N[C@@H](CCCNC(=N)N)C(=O)N[C@@H](CCC(=O)O)C(=O)N[C@@H](CCCCN)C(N)=O)NC(=O)[C@H](Cc2ccccc2)NC(=O)[C@H](CCCNC(=N)N)NC(=O)[C@H](C)NC(=O)[C@H](CCCCN)NC(=O)[C@H](Cc2ccc(O)cc2)NC1=O (single isomer, unassigned) [UBI-SAHN D306-Q313 (A)]",–

# Continued, compound first:
SMILES,α-helical content at 1° C. [1],ΔS [2],Tm [2],ΔH [2],"Kd [3, 4]",Binding affinity (FP) at 10 μM [3],"Kd ([3]; peptides with antennapedia, read-out: KD)",Kd ([3]; peptides with antennapedia)
"CC(=O)N[C@@H](CSC1CC(=O)N(CCNC(=O)CCC2=[N+]3C(=Cc4c(C)cc(C)n4[B-]3(F)F)C=C2)C1=O)C(=O)N[C@@H](CCC(=O)O)C(=O)N[C@@H](CC(C)C)C(=O)N[C@@H](C)C(=O)N[C@@H](CCC(N)=O)C(=O)N[C@@H](CC(C)C)C(=O)N[C@@H](CCC(N)=O)C(=O)N[C@@H](C)C(=O)N[C@@H](CCC(=O)O)C(=O)N[C@@H](CC(C)C)C(=O)N[C@@H](CC(=O)O)C(=O)N[C@]1(C)CCCCCCC=CCCC[C@@](C)(C(=O)N[C@@H](CC(=O)O)C(=O)N[C@@H](CCCCN)C(=O)N[C@@H](CCC(N)=O)C(=O)N[C@@H](CCC(=O)O)C(=O)N[C@@H](CC(C)C)C(=O)N[C@@H](CCCNC(=N)N)C(=O)N[C@@H](CCCCN)C(=O)N[C@@H](CC(C)C)C(N)=O)NC(=O)[C@H](CCC(N)=O)NC(=O)[C@H](C(C)C)NC(=O)[C@H](C(C)C)NC(=O)[C@H](C)NC(=O)[C@H](CCC(N)=O)NC(=O)[C@H](C(C)C)NC1=O (single isomer, unassigned) [Co-SAHN I307-A314 (A), ELAQLQAELDXVQAVVQXDKQELRKL, reference compound]",A: 45% -,A: −24 - cal. mol^−1.K^−1,A: 21 - B: C°,A: −6970 - (cal. mol)^−1,> 1850 µM,–,–,–
"CC[C@H](C)[C@@H]1NC(=O)[C@](C)(NC(=O)[C@H](C)NC(=O)[C@H](CCC(N)=O)NC(=O)[C@H](C)NC(=O)[C@H](CCCCN)NC(=O)[C@H](CC(C)C)NC(=O)[C@H](CSC2CC(=O)N(CCNC(=O)CCC3=[N+]4C(=Cc5c(C)cc(C)n5[B-]4(F)F)C=C3)C2=O)NC(C)=O)CCCCCCC=CCCC[C@@](C)(C(=O)N[C@@H](C)C(=O)N[C@@H](CCC(=O)O)C(=O)N[C@@H](CCCNC(=N)N)C(=O)N[C@@H](Cc2c[nH]cn2)C(=O)N[C@@H](C)C(=O)N[C@@H](CCCNC(=N)N)C(=O)N[C@@H](CCC(=O)O)C(=O)N[C@@H](CCCCN)C(N)=O)NC(=O)[C@H](Cc2ccccc2)NC(=O)[C@H](CCCNC(=N)N)NC(=O)[C@H](C)NC(=O)[C@H](CCCCN)NC(=O)[C@H](Cc2ccc(O)cc2)NC1=O (single isomer, unassigned) [UBI-SAHN D306-Q313 (B)]",B: 76%,B: −17 cal. mol^−1.K^−1,35 ± 0.3 C°,B: −5290 (cal. mol)^−1,–,Very weak,–,–
"CC[C@H](C)[C@H](NC(=O)[C@H](CC(=O)O)NC(=O)[C@H](C)NC(=O)[C@H](CCC(N)=O)NC(=O)[C@H](C)NC(=O)[C@H](CCCCN)NC(=O)[C@H](CC(C)C)NC(=O)[C@H](CCCCN)NC(=O)[C@H](CCCCN)NC(=O)[C@H](Cc1c[nH]c2ccccc12)NC(=O)[C@H](CCCCN)NC(=O)[C@H](CCSC)NC(=O)[C@H](CCCNC(=N)N)NC(=O)[C@H](CCCNC(=N)N)NC(=O)[C@H](CC(N)=O)NC(=O)[C@H](CCC(N)=O)NC(=O)[C@H](Cc1ccccc1)NC(=O)[C@H](Cc1c[nH]c2ccccc12)NC(=O)[C@@H](NC(=O)[C@H](CCCCN)NC(=O)[C@@H](NC(=O)[C@H](CCC(N)=O)NC(=O)[C@H](CCCNC(=N)N)NC(=O)[C@H](CSC1CC(=O)N(CCNC(=O)CCC2=[N+]3C(=Cc4c(C)cc(C)n4[B-]3(F)F)C=C2)C1=O)NC(C)=O)[C@@H](C)CC)[C@@H](C)CC)C(=O)N[C@@H](Cc1ccc(O)cc1)C(=O)N[C@@H](CCCCN)C(=O)N[C@@]1(C)CCCC=CCCC[C@@](C)(C(=O)N[C@@H](CCC(=O)O)C(=O)N[C@@H](CCCNC(=N)N)C(=O)N[C@@H](Cc2c[nH]cn2)C(=O)N[C@@H](C)C(=O)N[C@@H](CCCNC(=N)N)C(=O)N[C@@H](CCC(=O)O)C(=O)N[C@@H](CCCCN)C(N)=O)NC(=O)[C@H](CCC(N)=O)NC(=O)[C@H](Cc2ccccc2)NC(=O)[C@H](CCCNC(=N)N)NC1=O (stereo partly drawn) [A-UBI-SAHN A310-A314, RQIKIWFQNRRMKWKKLKAQADIYKX4RFQX6ERHAREK] (Ac-C(BODIPYFLEthylmaleimide)RQIKIWFQNRRMKWKKLKAQADIYK[S5]RFQ[S5]ERHAREK-NH2; staple 27-31)",57%,–,–,–,–,–,0.2 µM,–
"CC[C@H](C)[C@H](NC(=O)[C@H](CCCCN)NC(=O)[C@@H](NC(=O)[C@H](CCC(N)=O)NC(=O)[C@H](CCCNC(=N)N)NC(=O)[C@H](CSC1CC(=O)N(CCNC(=O)CCC2=[N+]3C(=Cc4c(C)cc(C)n4[B-]3(F)F)C=C2)C1=O)NC(C)=O)[C@@H](C)CC)C(=O)N[C@@H](Cc1c[nH]c2ccccc12)C(=O)N[C@@H](Cc1ccccc1)C(=O)N[C@@H](CCC(N)=O)C(=O)N[C@@H](CC(N)=O)C(=O)N[C@@H](CCCNC(=N)N)C(=O)N[C@@H](CCCNC(=N)N)C(=O)N[C@@H](CCSC)C(=O)N[C@@H](CCCCN)C(=O)N[C@@H](Cc1c[nH]c2ccccc12)C(=O)N[C@@H](CCCCN)C(=O)N[C@@H](CCCCN)C(=O)N[C@@H](CC(C)C)C(=O)N[C@@H](CCCCN)C(=O)N[C@@H](C)C(=O)N[C@@H](CCC(N)=O)C(=O)N[C@@H](C)C(=O)N[C@]1(C)CCCCCCC=CCCC[C@@](C)(C(=O)N[C@@H](C)C(=O)N[C@@H](CCC(=O)OC)C(=O)N[C@@H](CCCNC(=N)N)C(=O)N[C@@H](Cc2c[nH]cn2)C(=O)N[C@@H](C)C(=O)N[C@@H](CCCNC(=N)N)C(=O)N[C@@H](CCC(=O)OC)C(=O)N[C@@H](CCCCN)C(N)=O)NC(=O)[C@H](Cc2ccccc2)NC(=O)[C@H](CCCNC(=N)N)NC(=O)[C@H](C)NC(=O)[C@H](CCCCN)NC(=O)[C@H](Cc2ccc(O)cc2)NC(=O)[C@H]([C@@H](C)CC)NC1=O (stereo partly drawn) [A-UBI-SAHN D306-Q313 OMe, RQIKIWFQNRRMKWKKLKAQAX2IYKARFX5AX7RHARX9K] (Ac-C(BODIPYFLEthylmaleimide)RQIKIWFQNRRMKWKKLKAQA[R8]IYKARF[S5]AE(OMe)RHARE(OMe)K-NH2; staple 23-30)",–,–,–,–,–,–,–,0.06 ± 0.01 µM
